Data on three compounds can be found in paper PMC2806516 (Biochemistry, 2010).

Experiment [1] addresses T1, HpaC (Pseudomonas aeruginosa, UniProt Q9HWT6).
T1 sequence (Q9HWT6 1-170): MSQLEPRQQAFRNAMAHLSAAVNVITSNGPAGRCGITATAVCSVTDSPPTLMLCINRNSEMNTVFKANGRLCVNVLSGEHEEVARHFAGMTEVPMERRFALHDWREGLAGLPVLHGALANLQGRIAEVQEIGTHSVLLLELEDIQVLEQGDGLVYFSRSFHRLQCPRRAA
As to the kind of experiment: stopped-flow. In kind it is binding.

The target in experiment [2] is T2, HpaA (Pseudomonas aeruginosa, UniProt Q9HWT7).
T2 sequence (Q9HWT7 1-520): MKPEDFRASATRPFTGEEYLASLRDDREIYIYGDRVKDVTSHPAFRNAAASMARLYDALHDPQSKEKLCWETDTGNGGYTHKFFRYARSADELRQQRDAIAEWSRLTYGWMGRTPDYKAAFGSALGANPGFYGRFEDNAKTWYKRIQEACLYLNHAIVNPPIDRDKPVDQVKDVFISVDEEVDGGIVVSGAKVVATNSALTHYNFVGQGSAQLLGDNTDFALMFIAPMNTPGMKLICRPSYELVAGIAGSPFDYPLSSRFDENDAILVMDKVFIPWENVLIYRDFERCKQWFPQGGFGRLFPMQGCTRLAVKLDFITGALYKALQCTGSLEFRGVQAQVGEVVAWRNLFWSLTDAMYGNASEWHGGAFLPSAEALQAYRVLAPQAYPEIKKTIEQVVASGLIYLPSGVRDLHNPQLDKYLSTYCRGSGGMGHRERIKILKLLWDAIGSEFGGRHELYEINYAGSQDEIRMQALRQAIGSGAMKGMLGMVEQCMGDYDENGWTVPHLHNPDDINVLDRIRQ
Kind of experiment: stopped-flow. The experiment is classed as binding.

Experiment [3] has as its target T1, HpaC. Kind of experiment: fluorimetric titration. The experiment is classed as binding.
For experiment [4], the target named is T2, HpaA. As to the kind of experiment: absorption spectral titration. In kind it is binding.
For experiment [5], the target named is HpaA, oxygenase of p-hydroxyphenylacetate 3-hydroxylase (HPAH) from Pseudomonas aeruginosa, N-terminal His-tagged (P. aeruginosa). Kind of experiment: SEC. A general note: In gel filtration, larger molecules generally elute earlier.

Usually Kd stands for the constant that tells how readily two partners part at equilibrium. Higher therefore signals a looser complex. In the case of `Cc1cc2c(cc1C)N(C[C@H](O)[C@H](O)[C@H](O)COP(=O)(O)OP(=O)(O)OC[C@H]1O[C@@H](n3cnc4c(N)ncnc43)[C@H](O)[C@@H]1O)c1[nH]c(=O)[nH]c(=O)c1N2` [FADH^−], the Kd is around 20 µM at HpaC [1] and at most 2 µM on HpaA [2]. Turning to `Cc1cc2nc3c(=O)[nH]c(=O)nc-3n(C[C@H](O)[C@H](O)[C@H](O)COP(=O)(O)OP(=O)(O)OC[C@H]3O[C@@H](n4cnc5c(N)ncnc54)[C@H](O)[C@@H]3O)c2cc1C` [FAD], the Kd was 3 µM on HpaC [3] and at least 250 µM on HpaA [4]. Usually stoichiometry N stands for a count of units in the complex or per binding partner. In experiment [5], “HpaA, oxygenase of p-hydroxyphenylacetate 3-hydroxylase (HPAH) from Pseudomonas aeruginosa, N-terminal His-tagged (enzyme)” yielded a stoichiometry N of 2.
